Tests used:
Settings in all cases: 72 h
[1] = tested on: myeloid leukemia patient primary cells Pat.13; assay: cell viability (% survival relative to DMSO control); higher = less cytotoxic
Procedure, shortened: (§1)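 Where an area under the curve appears, it was computed with the drc and PharmacoGx R packages from log-logistic fits. Those fits used four parameters. The underlying viability data came from CellTiter-Glo after 72 h, normalised to DMSO and 10 μM proteasome-inhibitor wells, with thawed, Ficoll-purified AML or CML patient mononuclear cells at 10,000 cells/well in RPMI 1640 with 10% FBS on 384-well plates pre-printed with 70 compounds at five tenfold concentrations (1–10,000 nM) in duplicate.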

[2] = tested on: myeloid leukemia patient primary cells Pat.7; assay: as above
Procedure, shortened: as §1

[3] = tested on: myeloid leukemia patient primary cells Pat.3; assay: as above
Procedure, shortened: as §1

[4] = tested on: myeloid leukemia patient primary cells Pat.8; assay: as above
Procedure, shortened: as §1

[5] = tested on: myeloid leukemia patient primary cells Pat.5; assay: as above
Procedure, shortened: as §1

[6] = tested on: myeloid leukemia patient primary cells Pat.9; assay: as above
Procedure, shortened: as §1

HL-60 [7] = assay: area under dose-response curve (viability, 1 nM-10 uM) (fraction (0-1)); higher = more sensitive
Procedure, shortened: (§2)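 For each screen, HL-60 cells in RPMI 1640 with 10% FBS carried either DMSO or 100 nM of one of three metabolic inhibitors while the full library was applied at five tenfold concentrations, 1–10,000 nM, in duplicate. Plates were 384-well and were kept 72 h at 37 °C, 5% CO2. Viability, measured by CellTiter-Glo, was normalised to wells with DMSO and with 10 μM proteasome inhibitor. Where area under the curve appears, it was fitted by four-parameter log-logistic models in drc and PharmacoGx.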

[8] = tested on: myeloid leukemia patient primary cells Pat.13; assay: area under dose-response curve (viability, 1 nM-10 uM) (fraction (0-1)); higher = more sensitive
Experimental: (§3)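 AUC (0–1, higher = more sensitive) of the 5-point dose–response (1 nM–10 µM, 72 h, CellTiter-Glo) in primary AML/CML patient mononuclear cells. 0.030103 is the floor for inactive compounds.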

[9] = tested on: myeloid leukemia patient primary cells Pat.12; assay: as above
Experimental: as §3

[10] = tested on: myeloid leukemia patient primary cells Pat.7; assay: as above
Experimental: as §3

[11] = tested on: myeloid leukemia patient primary cells Pat.11; assay: as above
Experimental: as §3

[12] = tested on: myeloid leukemia patient primary cells Pat.15; assay: as above
Experimental: as §3

[13] = tested on: myeloid leukemia patient primary cells Pat.3; assay: as above
Experimental: as §3

[14] = tested on: myeloid leukemia patient primary cells Pat.10; assay: as above
Experimental: as §3

[15] = tested on: myeloid leukemia patient primary cells Pat.8; assay: as above
Experimental: as §3

[16] = tested on: myeloid leukemia patient primary cells Pat.5; assay: as above
Experimental: as §3

[17] = tested on: myeloid leukemia patient primary cells Pat.14; assay: as above
Experimental: as §3

[18] = tested on: myeloid leukemia patient primary cells Pat.6; assay: as above
Experimental: as §3

[19] = tested on: myeloid leukemia patient primary cells Pat.9; assay: as above
Experimental: as §3

[20] = tested on: myeloid leukemia patient primary cells Pat.4; assay: as above
Experimental: as §3

[21] = tested on: myeloid leukemia patient primary cells Pat.1; assay: as above
Experimental: as §3

[22] = tested on: myeloid leukemia patient primary cells Pat.2; assay: as above
Experimental: as §3

HL-60 [23] = assay: cell viability (% survival relative to DMSO control); higher = less cytotoxic
Procedure, shortened: as §2

Clc1cc(Cl)c(OCC#CI)cc1Cl [Haloprogin]
Settings	area under dose-response curve, co-treatment: AZD3965 100 nM	area under dose-response curve, co-treatment: DMSO vehicle	area under dose-response curve, co-treatment: GSK2194069 100 nM	area under dose-response curve, co-treatment: pictilisib 100 nM	cell viability, 1 nM [%]	cell viability, 10 nM [%]	cell viability, 100 nM [%]	cell viability, 1000 nM [%]	cell viability, 10000 nM [%]
HL-60 [7]	0.125	0.032	< 0.0301	0.0952	–	–	–	–	–
[1]	–	–	–	–	88.1	86	91	67.8	26.3
[2]	–	–	–	–	72.1	> 100	> 100	3.48	< 0
[3]	–	–	–	–	> 100	99.9	92.4	1.81	< 0
[4]	–	–	–	–	66.4	> 100	81.4	67.1	1.78
[5]	–	–	–	–	87.2	69.7	2.24	< 0	0.912
[6]	–	–	–	–	80.9	62.4	43.4	3.45	3.68

Settings	area under dose-response curve
[8]	0.152
[9]	0.204
[10]	0.356
[11]	0.166
[12]	0.183
[13]	0.388
[14]	0.411
[15]	0.175
[16]	0.677
[17]	0.427
[18]	0.238
[19]	0.505
[20]	0.323
[21]	0.258
[22]	0.209

cell viability [%], HL-60 [23]
Settings	0.001 µM	0.01 µM	0.1 µM	1 µM	10 µM
co-treatment: AZD3965 100 nM	103	102	104	99.73	3.01
co-treatment: DMSO vehicle	102	103	106	104	57.3
co-treatment: GSK2194069 100 nM	95.5	107	96.4	105	71.4
co-treatment: pictilisib 100 nM	92.6	96.3	107	105	14.4

c1ccc2c(c1)SCc1c-2[nH]c2ccccc12
Settings	area under dose-response curve, co-treatment: AZD3965 100 nM	area under dose-response curve, co-treatment: DMSO vehicle	area under dose-response curve, co-treatment: GSK2194069 100 nM	area under dose-response curve, co-treatment: pictilisib 100 nM	cell viability, 1 nM [%]	cell viability, 10 nM [%]	cell viability, 100 nM [%]	cell viability, 1000 nM [%]	cell viability, 10000 nM [%]
HL-60 [7]	< 0.0301	< 0.0301	< 0.0301	< 0.0301	–	–	–	–	–
[1]	–	–	–	–	90.5	72.1	92.1	61.1	22.6
[2]	–	–	–	–	> 100	72.5	> 100	41.6	< 0
[3]	–	–	–	–	96.1	76.1	89.8	2.3	< 0
[4]	–	–	–	–	92.5	67.3	69.9	75.9	0.503
[5]	–	–	–	–	82.4	5.49	44.4	7.88	2.27
[6]	–	–	–	–	91.9	34.7	71	2.02	5.35

Settings	area under dose-response curve
[8]	0.176
[9]	0.165
[10]	0.259
[11]	0.148
[12]	0.22
[13]	0.37
[14]	0.505
[15]	0.139
[16]	0.787
[17]	0.403
[18]	0.14
[19]	0.397
[20]	0.192
[21]	0.132
[22]	0.142

cell viability [%], HL-60 [23]
Settings	0.001 µM	0.01 µM	0.1 µM	1 µM	10 µM
co-treatment: AZD3965 100 nM	80.9	94.8	107	117	94.6
co-treatment: DMSO vehicle	102.4	101.01	98.13	101	96.9
co-treatment: GSK2194069 100 nM	96.7	100.7	103	96.4	93.2
co-treatment: pictilisib 100 nM	90.3	86.7	104	105	98.9

O=c1[nH]c(=O)n([C@H]2C[C@H](O)[C@@H](CO)O2)cc1I [Idoxuridine]
Settings	area under dose-response curve, co-treatment: AZD3965 100 nM	area under dose-response curve, co-treatment: DMSO vehicle	area under dose-response curve, co-treatment: GSK2194069 100 nM	area under dose-response curve, co-treatment: pictilisib 100 nM	cell viability, 1 nM [%]	cell viability, 10 nM [%]	cell viability, 100 nM [%]	cell viability, 1000 nM [%]	cell viability, 10000 nM [%]
HL-60 [7]	< 0.0301	< 0.0301	< 0.0301	< 0.0301	–	–	–	–	–
[1]	–	–	–	–	91	84.4	83.4	74.8	91.9
[2]	–	–	–	–	77.4	69.3	83.4	63	> 100
[3]	–	–	–	–	19.5	71.8	81.6	83.6	95.1
[4]	–	–	–	–	96.3	> 100	76.2	68.1	93.1
[5]	–	–	–	–	45.5	10.2	87.4	17.2	46.7
[6]	–	–	–	–	34.8	59.9	68.1	35.5	70.3

Settings	area under dose-response curve
[8]	< 0.0301
[9]	< 0.0301
[10]	< 0.0301
[11]	< 0.0301
[12]	< 0.0301
[13]	< 0.0301
[14]	< 0.0301
[15]	< 0.0301
[16]	< 0.0301
[17]	< 0.0301
[18]	< 0.0301
[19]	< 0.0301
[20]	< 0.0301
[21]	< 0.0301
[22]	< 0.0301

cell viability [%], HL-60 [23]
Settings	0.001 µM	0.01 µM	0.1 µM	1 µM	10 µM
co-treatment: AZD3965 100 nM	94.7	102	98.5	97.9	102
co-treatment: DMSO vehicle	99.9	100	99.7	94.9	103
co-treatment: GSK2194069 100 nM	95.3	100	101	98.6	86.4
co-treatment: pictilisib 100 nM	84.1	95.8	97.3	93.8	90

Nc1nc(O)c2c(CCc3ccc(C(=O)N[C@@H](CCC(=O)O)C(=O)O)cc3)c[nH]c2n1 [Pemetrexed]
Settings	area under dose-response curve, co-treatment: AZD3965 100 nM	area under dose-response curve, co-treatment: DMSO vehicle	area under dose-response curve, co-treatment: GSK2194069 100 nM	area under dose-response curve, co-treatment: pictilisib 100 nM	cell viability, 1 nM [%]	cell viability, 10 nM [%]	cell viability, 100 nM [%]	cell viability, 1000 nM [%]	cell viability, 10000 nM [%]
HL-60 [7]	0.24	0.233	0.236	0.223	–	–	–	–	–
[1]	–	–	–	–	91.5	94.6	90.8	82.7	82
[2]	–	–	–	–	98.8	68.1	84.5	74.1	66.3
[3]	–	–	–	–	> 100	79.5	76.8	50.9	45.7
[4]	–	–	–	–	91.8	88.4	89.8	78.1	87.6
[5]	–	–	–	–	> 100	88.1	43.2	83.4	14.5
[6]	–	–	–	–	94.3	67.3	50.7	> 100	32.6

Settings	area under dose-response curve
[8]	< 0.0301
[9]	< 0.0301
[10]	< 0.0301
[11]	< 0.0301
[12]	< 0.0301
[13]	0.196
[14]	< 0.0301
[15]	< 0.0301
[16]	0.0877
[17]	< 0.0301
[18]	< 0.0301
[19]	0.0468
[20]	< 0.0301
[21]	< 0.0301
[22]	< 0.0301

cell viability [%], HL-60 [23]
Settings	0.001 µM	0.01 µM	0.1 µM	1 µM	10 µM
co-treatment: AZD3965 100 nM	91.8	98.6	107	41.5	28
co-treatment: DMSO vehicle	102	100.6	112	43.8	36.8
co-treatment: GSK2194069 100 nM	71.6	95.7	122	40.1	32.2
co-treatment: pictilisib 100 nM	74.2	100.6	121	47.2	32.2

O=C(c1c2ccccc2cc2ccccc12)N1CCC(N2CCC[C@@H](C(=O)N3CCOCC3)C2)CC1
Settings	area under dose-response curve, co-treatment: AZD3965 100 nM	area under dose-response curve, co-treatment: DMSO vehicle	area under dose-response curve, co-treatment: GSK2194069 100 nM	area under dose-response curve, co-treatment: pictilisib 100 nM	cell viability, 1 nM [%]	cell viability, 10 nM [%]	cell viability, 100 nM [%]	cell viability, 1000 nM [%]	cell viability, 10000 nM [%]
HL-60 [7]	< 0.0301	< 0.0301	< 0.0301	< 0.0301	–	–	–	–	–
[1]	–	–	–	–	85.6	89.6	92.9	62.8	86.7
[2]	–	–	–	–	94.1	87.2	87.3	19	76.8
[3]	–	–	–	–	> 100	96.9	> 100	52.6	78.8
[4]	–	–	–	–	87.7	> 100	93.3	69.3	87.5
[5]	–	–	–	–	89.3	67.2	94.9	0.265	69.8
[6]	–	–	–	–	63.1	88.4	77.5	2.84	71.4

Settings	area under dose-response curve
[8]	< 0.0301
[9]	< 0.0301
[10]	0.312
[11]	< 0.0301
[12]	< 0.0301
[13]	< 0.0301
[14]	< 0.0301
[15]	< 0.0301
[16]	0.309
[17]	< 0.0301
[18]	< 0.0301
[19]	0.327
[20]	< 0.0301
[21]	< 0.0301
[22]	< 0.0301

cell viability [%], HL-60 [23]
Settings	0.001 µM	0.01 µM	0.1 µM	1 µM	10 µM
co-treatment: AZD3965 100 nM	93.6	96.9	102	101	83.4
co-treatment: DMSO vehicle	103	100	105.5	101	94.5
co-treatment: GSK2194069 100 nM	92.4	95.1	98.29	122	95.7
co-treatment: pictilisib 100 nM	93.4	100	103	98.8	78.8

Reference: the supplement of paper PMC8671470
